{
  "source": "patent US20040170622A1",
  "about": "“Methods and compositions for modulating XBP-1 activity” (President and Fellows of Harvard College, priority 2002, published 2004)",
  "system": "UPR target genes",
  "assay": "UPR gene and XBP-1 protein expression in MEF cells (gene array, Northern, Western blot)",
  "assay_type": "cell-based, mouse",
  "settings": "for induction of ERdj4 (XBP-1-dependent UPR target gene): XBP-1-deficient MEFs; for XBP-1u and XBP-1s protein induction: wt MEFs, 10 μM MG-132 or 10 μg/ml Tm, 6 hours",
  "protocol": "(A) XBP-1 locus in wild type and XBP-1^−/− MEF cells. Splicing of the mutant XBP-1 mRNA in XBP-1^−/− cells is shown. * represent termination codons. (B) Wild type and XBP-1^−/− MEF cells were untreated or treated with 10 μg/ml Tm for 6 hours. […] (C) Wild type and XBP-1^−/− MEF cells were treated with 10 μM MG-132 or 10 μg/ml Tm for 6 hours. XBP-1u and XBP-1s proteins were detected by Western blot analysis with anti-XBP-1 antibody.\n293T and MEF cells derived from wild type and XBP-1^−/− embryos were cultured in DMEM supplemented with 10% fetal calf serum (Hyclone Laboratories). MEF-tet-off cells (Clontech) were maintained in the same media with the addition of 100 μg/ml G418 and 1 μg/ml doxycycline. XBP-1s inducible cells were obtained by transfecting MEF-tet-off cells with the TREhyg-XBP-1s plasmid and then selecting in the presence of 400 μg/ml hygromycin B. Several clones were tested for doxycycline-dependent XBP-1s expression, and one was selected for further experiments. MEF-dn-XBP cells were generated by transfecting MEF-tet-off cells with the TREhyg-dn-XBP plasmid. […] ATF6α and β knockdown MEF cells were generated by cotransfecting wild type MEF cells with U6-iATF6α and β and cmv-puromycin or transducing cells with retroviruses containing each RNAi vector.\nTotal RNA was isolated from MEF cells with TRIZOL reagent (Invitrogen, Carlsbad, Calif.). cDNA synthesis, hybridization and laser scanning of the array were carried out at the Gene Array Technology Center (Brigham and Women's Hospital, Boston, Mass.) with MG-U74A GeneChips which had 6,000 functionally characterized sequences and 6,000 ESTs from the UniGene database (Affymetrix, Santa Clara, Calif.) as recommended by Affymetrix. Data analysis was performed using Affymetrix GeneChip 3.1 software under default parameter setting.\nTotal RNA was prepared by using Trizol reagent, electrophoresed on 1.2% agarose, 6% formaldehyde gels and then transferred onto Genescreen Plus membrane (NEN). ^32P-radiolabeled probes were prepared with the RediPrime II labeling system (Amersham-Pharmacia). Template DNAs for the probes were cut out by using appropriate restriction enzymes from the cDNA-containing plasmid (XBP-1, 15-830 of the murine coding region) or EST clones from ATCC (CHOP, IMAGE:5863055; ERdj4, IMAGE: 1920927; p58^IPK probe A, IMAGE:9001935; p58^IPK probe B, IMAGE:2646147; ATF6α, IMAGE:4503659; MGP, IMAGE:4990627; EDEM, IMAGE:5324660; PDI-P5, IMAGE:2645183; RAMP4, IMAGE:3489738). Grp94 and Grp78 probes were kindly provided by R. J. Kaufman, Univ. of Michigan and the HEDJ probe the kind gift of L. Hendershot, St. Jude Children's Research Hospital, Memphis. Probe hybridization was performed with Ultrahyb buffer as recommended by the manufacturer (Ambion).\n48 hours after transfection, 293T cells were washed twice with cold PBS and lysed in 1 ml lysis buffer (10 mM Tris pH7.4, 150 mM NaCl, 1% Triton X-100, 1 mM EDTA) containing a protease inhibitor cocktail tablet (Roche). Lysates were precleared by using protein A-agarose beads (Roche) for 1 hour and incubated with agarose conjugated anti-HA antibody (Santa Cruz) for overnight. The agarose beads were washed five times with the lysis buffer and resuspended in SDS-PAGE sample buffer. MEF cells were lysed in RIPA buffer (50 mM Tris pH 7.4, 150 mM NaCl, 1 mM EDTA, 1% Triton X-100, 1% sodium deoxycholate, 0.1% SDS). Lysates and immunoprecipitates were subjected to SDS-PAGE and transferred to Hybond P membrane (Amersham-Pharmacia).",
  "note": "Where a SMILES comes first, the peptide text is derived from it. The star is where a group is joined. Cbz = O=C(OCc1ccccc1)*",
  "data": [
    {"compound": "CC(C)C[C@@H](C=O)NC(=O)[C@H](CC(C)C)NC(=O)[C@H](CC(C)C)NC(=O)OCc1ccccc1", "note": "[MG-132] (Cbz-Leu-Leu-Leu-aldehyde)", "values": [
      {"measurement": "induction of ERdj4 (XBP-1-dependent UPR target gene)", "value": "normal induction of ERdj4"},
      {"measurement": "XBP-1u and XBP-1s protein induction", "value": "induced both XBP-1u and XBP-1s proteins"}
    ]},
    {"compound": "tunicamycin [Tm]", "values": [
      {"measurement": "induction of ERdj4 (XBP-1-dependent UPR target gene)", "value": "not induced at all"},
      {"measurement": "genes whose expression increased, of the total pool of 12,000 genes", "setting": "wt MEF cells, Tm 6 hours", "value": 2.8, "unit": "%"},
      {"measurement": "XBP-1u and XBP-1s protein induction", "value": "induced both XBP-1u and XBP-1s proteins"}
    ]}
  ]
}
